Assay results: patent US20040063745A1, “2-amino-4-(pyridin-2-yl)-thiazole derivatives as transforming growth factor beta (tgf-beta) inhibitors” (priority 2001, published 2004)

Test system: TAG-β signalling (PAI-1 promoter, HepG2 cells)
Experiment: Assay 1: PAI-1 promoter luciferase reporter assay in HepG2 cells exposed to TAG-β
Assay type: cell-based
Details: for IC50: Homo sapiens, HepG2
Experimental: The assay was performed in HepG2 cells stably transfected with the PAI-1 promoter (known to be a strong TAG-β responsive promoter) linked to a luciferase (firefly) reporter gene. The compounds were selected on their ability to inhibit luciferase activity in cells exposed to TAG-β. In addition cells were transfected with a second luciferase (Renilla) gene which was not driven by a TAG-β responsive promoter and was used as a toxicity control.
(96 well-)microplates are seeded, using a multidrop apparatus, with the stably transfected cell line at a concentration of 35000 cells per well in 200 μl of serum-containing medium. These plates are placed in a cell incubator.
18 to 24 hours later (Day 2), cell-incubation procedure is launched. Cells are incubated with TAG-β and a candidate compound (TAG-β inhibitor) at concentrations in the range 50 nM to 10 μM (final concentration of DMSO 1%). The final concentration of TAG-β(rhTGFβ-1) used in the test is 1 ng/mL. Cells are incubated with a candidate compound 15-30 mins prior to the addition of TAGβ. The final volume of the test reaction is 150 μl. Each well contains only one candidate compound and its effect on the PAI-1 promoter is monitored.
Columns 11 and 12 are employed as controls. Column 11 contains 8 wells in which the cells are incubated in the presence of TAGβ, without a candidate compound. Column 11 is used to determine the ‘reference TAG-β induced firefly luciferase value’ against which values measured in the test wells (to quantify inhibitory activity) may be compared. In wells A12 to D12, cells are grown in medium without TAG-β. The firefly luciferase values obtained from these positions are representive of the ‘basal firefly luciferase activity’. In wells E12 to H12, cells are incubated in the presence of TAG-β and 500 μM CPO (Cyclopentenone, Sigma), a cell toxic compound.
12 to 18 hours later (day 3), the luciferase quantification procedure is launched. The following reactions are performed using reagents obtained from a Dual Luciferase Assay Kit (Promega). Cells are washed and lysed with the addition of 10 μl of passive lysis buffer (Promega). Following agitation (15 to 30 mins), luciferase activities of the plates are read in a dual-injector luminometer (BMG lumistar). For this purpose, 50 μl of luciferase assay reagent and 50 μl of ‘Stop & Glo’ buffer are injected sequentially to quantify the activities of both luciferases. The mean Luciferase activity value obtained in wells A11 to H11 (Column 11, TAG-β only) is considered to represent 100% and values obtained in wells A12 to D12 (cells in medium alone) gives a basal level (0%). For each of the compounds tested, a concentration response curve is constructed from which an IC50 value can be determined graphically.

Structure (SMILES) | firefly and renilla luciferase activities relative to column 11 (TAG-β only) (500 μM CPO with TAG-β, toxicity control wells E12 to H12) | IC50
O=C1C=CCC1 [CPO, Cyclopentenone, reference compound] | around 50% | 
Nc1nc(-c2ccccn2)c(-c2ccnc3ccccc23)s1 [Example 1, 4-(Pyridin-2-yl)-5-quinolin-4-yl-1,3-thiazol-2-amine] |  | ≤ 5 µM
Nc1nc(-c2ccccn2)c(-c2ccc3ncccc3n2)s1 [Example 2, 5-([1,5]Naphthyridin-2-yl)4-pyridin-2-yl-1,3-thiazol-2-amine] |  | ≤ 5 µM
Cc1cccc(-c2nc(N)sc2-c2ccc3ncccc3n2)n1 [Example 3, 4-(6-Methyl-pyridin-2-yl)-5-([1,5]naphthyridin-2-yl)-1,3-thiazol-2-amine] |  | ≤ 5 µM
